Source: PubChem BioAssay AID2024 (Southern Research Specialized Biocontainment Screening …, 2009)
Activity calls are given as the source filed them. No rule for the calls is given here.

Tested on: virus-infected cells, titer reduction, log titer change
Assay: virus titer reduction by selected antiviral hits, confirmation, cell-based, 55 compounds from dose-response study (AID 2024)
Details: at 10 µM (top of the series)

Row | SMILES | log titer change, negative = reduction
1 | CCN(CC)CCNC(=O)c1sc2ncn(CC(=O)Nc3ccc(C)c(Cl)c3)c(=O)c2c1C | 0.5 (inactive)
2 | Cn1c(=O)[nH]c(=O)c2c1nc(N1CCN(C(c3ccccc3)c3ccccc3)CC1)n2CCO | -1.17
3 | CC1=CC(C)(C)N2C(=O)C3(NCCc4c3[nH]c3ccccc43)c3cc(C)cc1c32 (stereo not drawn) | -1.27
4 | CCN1CCN(CCCNC(=O)c2cc3c(s2)-c2ccccc2OC3)CC1 | -0.5 (inactive)

Same assay, conditions: at 20 µM (top of the series)

Row | SMILES | log titer change, negative = reduction
5 | CCN(CC)CCCNC(=S)N1CCN(c2nc(-c3ccccc3)cs2)CC1 | -0.57 (inactive)
6 | Cc1ccc(-c2cc(C(=O)NCCCN3CCCC3)c3ccccc3n2)cc1C | 0.19 (inactive)
7 | CCOc1ccc(NC(=O)c2c(NC(=O)CN3CCN(C)CC3)sc3c2CCC3)cc1 | 0 (inactive)
8 | Cc1c(Cc2ccccc2)c(NCCN(C)C)n2c(nc3ccccc32)c1C#N | 0.43 (inactive)
9 | Cc1ccc2cc(C#N)c(N3CCCN(C(=S)NCCCN(C)C)CC3)nc2c1 | -0.02 (inactive)
10 | COc1cc2c(OC(C)=O)c3c(c(-c4ccc5c(c4)OCO5)c2cc1OC)C(=O)OC3 | -2
11 | Cc1cccn2c(=O)c3cc(C(=O)NCCN4CCOCC4)c(=N)n(Cc4ccc(F)cc4)c3nc12 | -0.03 (inactive)
12 | CCN1CCN(CCCNC(=O)c2ccc3c(Cl)c4c(nc3c2)CCCC4)CC1 | -0.02 (inactive)
13 | CCN(CC)CCNC(=O)C1CCN(S(=O)(=O)c2c(C)noc2/C=C/c2ccccc2F)CC1 | 0.27 (inactive)
14 | Cc1ccc2[nH]c(=O)c(CN(CCCN(C)C)C(=O)Nc3ccc(Cl)cc3)cc2c1 | -2.15
15 | NCCCNc1nc(N)c([N+](=O)[O-])c(NC2CCCCC2)n1 | -4.74
16 | CCOC(=O)c1c(CN2CCN(CCO)CC2)n(-c2ccccc2)c2cc(Br)c(O)cc12 | -0.07 (inactive)
17 | CN1CCN(CCNC(=O)c2ccc3nc(-c4ccc(F)cc4)c(-c4ccc(F)cc4)nc3c2)CC1 | -0.03 (inactive)
18 | CCN1CCN(CCCNC(=O)C2CCCN(c3nc4c(C)cc(C)cc4s3)C2)CC1 (stereo not drawn) | -0.36 (inactive)
19 | COc1ccc(C2c3ccc4ccccc4c3Oc3ncn(CCO)c(=N)c32)cc1 (stereo not drawn) | 0.39 (inactive)
20 | CCN(CC)CCCC(C)NC(=O)c1c(NC(=O)c2ccccc2)sc2c1CCCC2 (stereo not drawn) | 0.55 (inactive)
21 | CC1CCCN(CCCNC(=O)c2cc3c(s2)-c2ccccc2OC3)C1 (stereo not drawn) | -0.41 (inactive)
22 | CN(CCCNC(=O)c1cc2c(Cl)nc3ccccc3c2s1)Cc1ccccc1 | 0.43 (inactive)
23 | O=C(CN1C(=O)/C(=C/c2ccc(C(F)(F)F)cc2)Sc2ccccc21)NCCCN1CCOCC1 | -0.16 (inactive)
24 | COc1cc(CNC(C)(C)CO)cc(Br)c1OCc1ccc(Cl)cc1 | 0.27 (inactive)
25 | COc1ccc(C2c3c(ncn(CCN4CCOCC4)c3=N)Oc3ccc4ccccc4c32)cc1 (stereo not drawn) | 0.93 (inactive)
26 | CCN(CC)CCn1c(=N)n(CC(=O)c2ccc(Br)s2)c2ccccc21 | 0.31 (inactive)
27 | Brc1ccc2c(c1)CN1CCCC1=N2 | -1.9
28 | CC1CCCC(C)N1CCCNC(=O)c1cc2c(s1)-c1ccccc1OC2 (stereo not drawn) | 0.43 (inactive)
29 | CN(C)CCCNC(=S)N1CCN(c2nc(-c3ccccc3)cs2)CC1 | -0.02 (inactive)

Row | SMILES | log titer change, negative = reduction
30 | COc1ccc(C2c3ccc4ccccc4c3Oc3ncn(CCCO)c(=N)c32)cc1OC (stereo not drawn) | 0.54 (inactive)
31 | CCN(CC)CCCNC(=O)c1cc2c(-c3cccc(OC)c3)nn(C)c2s1 | 0.93 (inactive)
32 | CC(C)c1oc(=O)cc2c1[C@@H](O)[C@H]1OC(=O)[C@@]3(C)C[C@@H](O)[C@@H](O)[C@@]2(C)C13 (stereo partly drawn) | -0.25 (inactive)
33 | CC1CCN(CCCNC(=O)c2cc3c(s2)-c2ccccc2OC3)CC1 | 0.43 (inactive)
34 | CCCN(CCC)CCCNC(=S)Nc1ccc2nc(N3CCCC3)cc(C)c2c1 | -0.33 (inactive)
35 | CN(C)CCCN1c2ccc([N+](=O)[O-])cc2CCc2cc([N+](=O)[O-])ccc21 | 0 (inactive)
36 | Cc1ccc(C)c(N2CCN(CCCNC(=O)CCC(=O)N3CCOc4ccc(Cl)cc43)CC2)c1 | -0.03 (inactive)
37 | CN(C)CCCN(C(=O)c1ccc2c(c1)OCCO2)c1nc2ccc(Cl)cc2s1 | -0.33 (inactive)
38 | CN(C)CCCNC(=O)c1cc2sc3ccccc3c2s1 | -0.17 (inactive)
39 | COc1ccc(-c2csc(N(CCCN(C)C)C(=O)c3ccccc3Cl)n2)cc1 | -1.5
40 | O=C(CSc1nc2ccccc2c(=O)n1-c1ccc(F)cc1F)Nc1ccc2c(c1)CCC2 | -2.18
41 | O=C(Oc1ccccc1)c1ccc(-n2cnnn2)cc1 | -0.73 (inactive)
42 | CCOc1ccc(/C=C/c2nc(C#N)c(NCCCN(C)C)o2)cc1 | 0.31 (inactive)
43 | CCCN1CCN(CCCNC(=O)c2cc3c(s2)-c2ccccc2OC3)CC1 | 0 (inactive)
44 | CC[C@@H](C(=O)[C@@H](C)[C@@H](O)[C@H](C)CCc1ccc(C)c(O)c1C(=O)O)[C@H]1O[C@](CC)([C@H]2CC[C@](O)(CC)[C@H](C)O2)C[C@@H]1C | 0.14 (inactive)
45 | CN(C)CC(O)COc1ccc(C(C)(C)c2ccc(OCC(O)CN(C)C)cc2)cc1 (stereo not drawn) | -1.17
46 | N=C1C(c2nc(-c3ccc(Cl)cc3)cs2)=C(O)CN1CCCN1CCOCC1 | 1.48 (inactive)
47 | CC(C)c1oc(=O)cc2c1[C@@H](O)[C@H]1OC(=O)[C@@]3(C)CC[C@@H](O)[C@@]2(C)C13 (stereo partly drawn) | -1.17
48 | Cc1c(NC(=O)COC(=O)c2cc(-c3ccc(-c4ccccc4)cc3)nc3ccccc23)c(=O)n(-c2ccccc2)n1C | 0.31 (inactive)
49 | Cc1ccc2oc(=O)c3cc(C(=O)NCCCN4CC(C)CC(C)C4)sc3c2c1 (stereo not drawn) | 0.31 (inactive)
50 | Cc1cc(C)cc(SCc2noc(C(=O)NCCN(C)C)c2C(=O)NCCN(C)C)c1 | -0.17 (inactive)
51 | CN1CCN(CCCN2c3ccccc3Sc3ccc(Cl)cc32)CC1 | -0.64 (inactive)
52 | O=C(CSc1nc2ccccc2c(=O)n1-c1ccc(F)cc1)Nc1ccc2c(c1)CCC2 | -0.69 (inactive)
53 | CCN1CCN(c2ncc(C(=O)Nc3cc(Cl)c(OC)cc3OC)c3ccccc23)CC1 | -0.17 (inactive)
